EC50 and IC50 data for 16 compounds are collected here from patent US20250129069A1, “TRIAZOLO WRN INHIBITORS” (Nimbus Wadjet, Inc., priority 2023, published 2025).

Experiment [1] concerns p21 induction in HCT 116 cells. The experiment is described as follows: p21 induction in cells (In-Cell Western, p21/GAPDH ratio). The class given is cell-based. To be noted: Homo sapiens, 24 h compound incubation, read-out: p21_EC50. Put shortly: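 HCT 116 cells treated 24 h at 37° C with 11-point, 2-fold dilutions typically from 10 μM, in duplicate. Fixed cells co-stained for p21 (800 nm) and GAPDH (700 nm) by In-Cell Western. p21/GAPDH ratio normalised between DMSO and reference WRN inhibitor controls, and EC50 obtained by nonlinear regression.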

For experiment [2], the target named is human Werner helicase (WRN, amino acids 517-1235 with L1074F point mutation) (Homo sapiens (Human), UniProt Q14191, L1074F). The experiment is described as follows: WRN (BV08) ADP-Glo assay. The class given is biochemical. To be noted: human WRN (aa 517-1235, L1074F), read-out: ADP-Glo_hWRN_IC50. Put shortly: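 Untagged WRN 517-1235 (L1074F), Sf9/baculovirus-expressed, 0.15 nM, preincubated 15 min with compound, then 5 μM ATP and 0.1 nM annealed DNA duplex added; 60 min at 25 °C in Bicine pH 7.5, 1 mM MgCl2, 1% DMSO. ADP-Glo luminescence; % inhibition vs DMSO and 20 μM NSC-617145 controls, four-parameter IC50 fit.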

Structures are written as SMILES.

Chain of human Werner helicase (WRN, amino acids 517-1235 with L1074F point mutation) (Q14191 other isoform, or with tags, fused parts or gaps L1074F (already in the parent)): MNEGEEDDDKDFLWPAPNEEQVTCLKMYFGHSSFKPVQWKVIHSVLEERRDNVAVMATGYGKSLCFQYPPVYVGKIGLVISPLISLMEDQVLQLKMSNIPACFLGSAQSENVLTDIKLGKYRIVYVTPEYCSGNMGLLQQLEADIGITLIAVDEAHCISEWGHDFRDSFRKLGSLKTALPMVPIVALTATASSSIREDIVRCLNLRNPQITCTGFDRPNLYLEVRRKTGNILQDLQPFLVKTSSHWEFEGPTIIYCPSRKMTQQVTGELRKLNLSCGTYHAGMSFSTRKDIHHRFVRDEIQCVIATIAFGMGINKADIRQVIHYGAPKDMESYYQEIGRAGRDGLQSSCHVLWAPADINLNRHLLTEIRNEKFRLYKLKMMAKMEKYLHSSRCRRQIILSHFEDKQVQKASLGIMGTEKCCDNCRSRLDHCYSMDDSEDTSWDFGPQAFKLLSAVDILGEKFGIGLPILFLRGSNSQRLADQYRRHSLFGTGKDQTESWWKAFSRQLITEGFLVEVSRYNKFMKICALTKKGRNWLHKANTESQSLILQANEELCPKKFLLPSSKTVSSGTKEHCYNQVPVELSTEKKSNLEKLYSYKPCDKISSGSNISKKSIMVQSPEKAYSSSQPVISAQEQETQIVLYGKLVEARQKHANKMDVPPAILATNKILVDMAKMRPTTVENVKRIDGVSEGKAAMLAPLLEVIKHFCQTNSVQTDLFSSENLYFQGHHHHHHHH

For the compound `CCc1c(N2CCN(C(=O)c3c(OC)ncc(C)c3O)[C@H]3CC[C@@H]32)c(=O)c2nn(-c3ccnc(OC)c3)nc2n1CC(=O)Nc1ccc(C(F)(F)F)cc1F` [Compound I-102, 2-{5-ethyl-6-[(1S,6S)-5-(4-hydroxy-2-methoxy-5-methylpyridine-3-carbonyl)-2,5-diazabicyclo[4.2.0]octan-2-yl]-2-(2-methoxypyridin-4-yl)-7-oxo-2H,4H,7H-[1,2,3]triazolo[4,5-b]pyridin-4-yl}-N-[2-fluoro-4-(trifluoromethyl)phenyl]acetamide], the EC50 in experiment [1] is not above 500 nM. The IC50 in experiment [2] is not above 5 nM.
Taken in the same sequence, the figures for `CCc1c(N2CCN(C(=O)c3ccccc3C(=O)O)CC2)c(=O)c2nn(-c3ccnc(OC)c3)nc2n1CC(=O)NC12CC(C3CC3)(C1)C2` [Compound I-161, 2-(4-{4-[{{3-cyclopropylbicyclo[1.1.1]pentan-1-yl}carbamoyl)methyl]-5-ethyl-2-(2-methoxypyridin-4-yl)-7-oxo-2H,4H,7H-[1,2,3]triazolo[4,5-b]pyridin-6-yl}piperazine-1-carbonyl)benzoic acid] were more than 5000 nM and 5 to 50 nM.
On the same counts, the results for `CCc1c(N2CCN(C(=O)c3ncnc(C)c3O)[C@H]3CC[C@@H]32)c(=O)c2nn(-c3ccnc(C)c3)nc2n1CC(=O)Nc1ccc(C(F)(F)F)cc1Cl` [Compound I-9, N-(2-chloro-4-(trifluoromethyl)phenyl)-2-(5-ethyl-6-((1S,6S)-5-(5-hydroxy-6-methylpyrimidine-4-carbonyl)-2,5-diazabicyclo[4.2.0]octan-2-yl)-2-(2-methylpyridin-4-yl)-7-oxo-2,7-dihydro-4H-[1,2,3]triazolo[4,5-b]pyridin-4-yl)acetamide] are not above 500 nM and 5 to 50 nM.
On the same counts, the results for `CCc1c(N2CCN(C(=O)c3ncnc(C)c3O)CC2)c(=O)c2nn(-c3cc(C)n(C)n3)nc2n1CC(=O)Nc1ccc(C(F)(F)F)cc1Cl` [Compound I-113, N-[2-chloro-4-(trifluoromethyl)phenyl]-2-[2-(1,5-dimethyl-1H-pyrazol-3-yl)-5-ethyl-6-[4-(5-hydroxy-6-methylpyrimidine-4-carbonyl)piperazin-1-yl]-7-oxo-2H,4H,7H-[1,2,3]triazolo[4,5-b]pyridin-4-yl]acetamide] are not above 500 nM and 5 to 50 nM.
With `CCc1c(N2CCN(C(=O)c3c(O)cccc3OC(F)(F)F)CC2)c(=O)c2nn(-c3ccnc(OC)c3)nc2n1CC(=O)NC12CC(C3CC3)(C1)C2` [Compound I-136, N-{3-cyclopropylbicyclo[1.1.1]pentan-1-yl}-2-(5-ethyl-6-{4-[2-hydroxy-6-(trifluoromethoxy)benzoyl]piperazin-1-yl}-2-(2-methoxypyridin-4-yl)-7-oxo-2H,4H,7H-[1,2,3]triazolo[4,5-b]pyridin-4-yl)acetamide], the EC50 in experiment [1] was 2000 to 5000 nM. For the same compound, the IC50 in experiment [2] was 5 to 50 nM.
Taken in the same sequence, the figures for `CCc1c(N2CCN(C(=O)c3ncnc(C)c3O)[C@H]3CC[C@@H]32)c(=O)c2nn(-c3ncccc3F)nc2n1CC(=O)NC12CC(C(C)C)(C1)C2` [Compound I-163, 2-[5-ethyl-2-(3-fluoropyridin-2-yl)-6-[(1S,6S)-5-(5-hydroxy-6-methylpyrimidine-4-carbonyl)-2,5-diazabicyclo[4.2.0]octan-2-yl]-7-oxo-2H,4H,7H-[1,2,3]triazolo[4,5-b]pyridin-4-yl]-N-[3-(propan-2-yl)bicyclo[1.1.1]pentan-1-yl]acetamide] were more than 5000 nM and 5 to 50 nM.
On the same counts, the results for `CCc1c(N2CCN(C(=O)c3ncnc(C)c3O)[C@H]3CC[C@@H]32)c(=O)c2nn(-c3cc(C)n(C)n3)nc2n1CC(=O)NC1CC2(CCC2)C1` [Compound I-36, 2-[2-(1,5-dimethyl-1H-pyrazol-3-yl)-5-ethyl-6-[(1S,6S)-5-(5-hydroxy-6-methylpyrimidine-4-carbonyl)-2,5-diazabicyclo[4.2.0]octan-2-yl]-7-oxo-2H,4H,7H-[1,2,3]triazolo[4,5-b]pyridin-4-yl]-N-{spiro[3.3]heptan-2-yl}acetamide] are not above 500 nM and 5 to 50 nM.
On the same counts, the results for `CCc1c(N2CCN(C(=O)c3ccc4cccc(O)c4n3)[C@H]3CC[C@@H]32)c(=O)c2nn(C3=CCOCC3)nc2n1CC(=O)NC12CC(C(C)C)(C1)C2` [Compound I-158, 2-[2-(3,6-dihydro-2H-pyran-4-yl)-5-ethyl-6-[(1S,6S)-5-(8-hydroxyquinoline-2-carbonyl)-2,5-diazabicyclo[4.2.0]octan-2-yl]-7-oxo-2H,4H,7H-[1,2,3]triazolo[4,5-b]pyridin-4-yl]-N-[3-(propan-2-yl)bicyclo[1.1.1]pentan-1-yl]acetamide] are not above 500 nM and 5 to 50 nM.
Consider `CCc1c(C2=CCN(C(=O)c3ncnc(C)c3O)C[C@H]2C)c(=O)c2nn(-c3ccnc(OC)c3)nc2n1CC(=O)NC12CC(C(C)C)(C1)C2` (single isomer, unassigned) [Compound I-80], for which the EC50 in experiment [1] is not above 500 nM. For the same compound, the IC50 in experiment [2] was in the range of 5 to 50 nM.
On the same counts, the results for `CCc1c(N2CCN(C(=O)c3cccnc3OC(F)F)[C@H]3CC[C@@H]32)c(=O)c2nn(C3=CCOCC3)nc2n1CC(=O)NC12CC(C(C)C)(C1)C2` [Compound I-207, 2-{6-[(1S,6S)-5-[2-(difluoromethoxy)pyridine-3-carbonyl]-2,5-diazabicyclo[4.2.0]octan-2-yl]-2-(3,6-dihydro-2H-pyran-4-yl)-5-ethyl-7-oxo-2H,4H,7H-[1,2,3]triazolo[4,5-b]pyridin-4-yl}-N-[3-(propan-2-yl)bicyclo[1.1.1]pentan-1-yl]acetamide] are 500 to 2000 nM and 5 to 50 nM.
Consider `CCc1c(N2CCN(C(=O)c3ncnc(C)c3O)[C@H]3CC[C@@H]32)c(=O)c2nn(-c3ccnc(OC)c3)nc2n1CC(=O)NC12CC(OC(F)(F)F)(C1)C2` [Compound I-29, 2-(5-ethyl-6-((1S,6S)-5-(5-hydroxy-6-methylpyrimidine-4-carbonyl)-2,5-diazabicyclo[4.2.0]octan-2-yl)-2-(2-methoxypyridin-4-yl)-7-oxo-2,7-dihydro-4H-[1,2,3]triazolo[4,5-b]pyridin-4-yl)-N-(3-(trifluoromethoxy)bicyclo[1.1.1]pentan-1-yl)acetamide], for which the EC50 in experiment [1] was not above 500 nM. Also, the IC50 in experiment [2] is 5 to 50 nM.
Taken in the same sequence, the figures for `CCc1c(N2CCN(C(=O)c3c(C#N)cncc3OC)[C@H]3CC[C@@H]32)c(=O)c2nn(C3=CCOCC3)nc2n1CC(=O)NC12CC(C(C)C)(C1)C2` [Compound I-168, 2-{6-[(1S,6S)-5-(3-cyano-5-methoxypyridine-4-carbonyl)-2,5-diazabicyclo[4.2.0]octan-2-yl]-2-(3,6-dihydro-2H-pyran-4-yl)-5-ethyl-7-oxo-2H,4H,7H-[1,2,3]triazolo[4,5-b]pyridin-4-yl}-N-[3-(propan-2-yl)bicyclo[1.1.1]pentan-1-yl]acetamide] were 500 to 2000 nM and 5 to 50 nM.
In the case of `CCc1c(N2CCN(C(=O)c3ncnc(C)c3O)[C@H]3CC[C@@H]32)c(=O)c2nn(-c3ccc(OC)cc3)nc2n1CC(=O)NC12CC(C(C)C)(C1)C2` [Compound I-155, 2-{5-ethyl-6-[(1S,6S)-5-(5-hydroxy-6-methylpyrimidine-4-carbonyl)-2,5-diazabicyclo[4.2.0]octan-2-yl]-2-(4-methoxyphenyl)-7-oxo-2H,4H,7H-[1,2,3]triazolo[4,5-b]pyridin-4-yl}-N-[3-(propan-2-yl)bicyclo[1.1.1]pentan-1-yl]acetamide], the EC50 in experiment [1] is not above 500 nM. Besides, the IC50 in experiment [2] was not above 5 nM.
On the same counts, the results for `CCc1c(N2CCN(C(=O)c3c(O)ccc4ncoc34)[C@H]3CC[C@@H]32)c(=O)c2nn(-c3ccnc(OC)c3)nc2n1CC(=O)NC12CC(C(F)(F)F)(C1)C2` [Compound I-148, 2-{5-ethyl-6-[(1S,6S)-5-(6-hydroxy-1,3-benzoxazole-7-carbonyl)-2,5-diazabicyclo[4.2.0]octan-2-yl]-2-(2-methoxypyridin-4-yl)-7-oxo-2H,4H,7H-[1,2,3]triazolo[4,5-b]pyridin-4-yl}-N-[3-(trifluoromethyl)bicyclo[1.1.1]pentan-1-yl]acetamide] are not above 500 nM and 5 to 50 nM.
Taken in the same sequence, the figures for `CCc1c(N2CCN(C(=O)c3ncnc(C)c3O)CC2)c(=O)c2nn(-c3cnn(C4CC4)c3)nc2n1CC(=O)Nc1ccc(C(F)(F)F)cc1Cl` [Compound I-112, N-[2-chloro-4-(trifluoromethyl)phenyl]-2-[2-(1-cyclopropyl-1H-pyrazol-4-yl)-5-ethyl-6-[4-(5-hydroxy-6-methylpyrimidine-4-carbonyl)piperazin-1-yl]-7-oxo-2H,4H,7H-[1,2,3]triazolo[4,5-b]pyridin-4-yl]acetamide] were not above 500 nM and 5 to 50 nM.
On to `CCc1c(N2CCN(C(=O)c3c(OCCOC)ncc(C)c3O)CC2)c(=O)c2nn(-c3ccnc(OC)c3)nc2n1CC(=O)NC12CC(C(C)C)(C1)C2` [Compound I-45, 2-(5-ethyl-6-{4-[4-hydroxy-2-(2-methoxyethoxy)-5-methylpyridine-3-carbonyl]piperazin-1-yl}-2-(2-methoxypyridin-4-yl)-7-oxo-2H,4H,7H-[1,2,3]triazolo[4,5-b]pyridin-4-yl)-N-[3-(propan-2-yl)bicyclo[1.1.1]pentan-1-yl]acetamide], for which the EC50 in experiment [1] was not above 500 nM. In addition, the IC50 in experiment [2] was 5 to 50 nM.
